Read-outs that look alike come from different tables or passages of the source.
Assays:
[1] = cited from earlier work
[2] = Drug-excipient compatibility (Total RS); assay type: physicochemical
Protocol: Experiments were conducted to ascertain compatibility of the drug with commonly used excipients.

[3] = Solubility of flavoxate in various solvents at 20° C.; assay type: physicochemical
Protocol: (§1) Solubility of flavoxate hydrochloride was determined in various aqueous buffers, water, ethanol, acetone and ethyl ether at 20° C. and at ambient temperature (20 to 25° C.).

[4] = pH-dependent aqueous solubility at ambient temperature; assay type: physicochemical; conditions: 20 °C
Protocol: as §1

[5] = Flow properties of drug powder; assay type: physicochemical
Protocol: Tapped density • 2. Bulk density • 3. Compressibility Index and Hausner ratio • 4. Angle of repose Solubility: Flowability measures how uniformly the powder flows from the hopper into the tablet die and is an index of how well the tablet die will be filled to a constant volume. […] Similarly, the angle between the freestanding surface of a powder heap and horizontal plane is the angle of repose. […] flowability was less and could be improved with addition of lubricants during tablet-making. Results of tests to determine the Angle of repose (35°), Carr's index (33.3%), bulk density (0.236 gm/ml) and tapped density ([…]) indicate that the drug powder had poor flow properties.

For `Cc1c(-c2ccccc2)oc2c(C(=O)O)cccc2c1=O` [MFCA, 3-methylflavone-8-carboxylic acid], the “half-life t½” value ([1]; MFCA) is listed as 3.5 h.

In the case of `Cc1c(-c2ccccc2)oc2c(C(=O)OCCN3CCCCC3)cccc2c1=O.Cl` [flavoxate, 2-piperidinoethyl-3-methylflavone 8-carboxylate hydrochloride], the “Total R.S. (%) 30 D/40° C./75% RH*” value ([2]; 30 days at 40° C. and 75% relative humidity) is given as 0.04%, the “Total R.S. (%) Initial” value ([2]; initial) is given as 0.02% and the “duration of therapeutic activity” value ([1]; in vivo) is given as 5 to 6 h. The “free flavoxate in urine” value ([1]; in vivo) was “No free flavoxate was found”, the “time of peak level of MFCA” value ([1]; oral 400 mg dose) was “around two hours” and the “time of peak level of MFCA” value ([1]; oral administration of 200 mg dose) was 30 to 60 min. For the same compound, the “dose excreted as MFCA within 12 hours” value ([1]; oral, within 12 hours) was “About 50%”, the “dose excreted as MFCA” value ([1]; urine, 24 hours, intravenous) was 47% and the Solubility % w/v ([3]; Acetone) was “Insoluble”. For the same compound, the Solubility % w/v ([3]; Chloroform) was 2.50 % w/v, the Solubility % w/v ([3]; Ethanol) was 0.20 % w/v and the Solubility % w/v ([3]; Ethyl Ether) was “Insoluble”. It also gave a Solubility % w/v ([3]; Methanol) of 0.90 % w/v, a solubility ([3]; Water, read-out: Solubility % w/v) of 7500 µg/mL and a solubility ([4]; aqueous buffer, 0.05N Phosphate Buffer, pH 2.5, 20 to 25° C.) of 7640 µg/mL. It also gave a solubility ([4]; aqueous buffer, 0.05N Phosphate Buffer, pH 4.5, 20 to 25° C.) of 13700 µg/mL, a solubility ([4]; aqueous buffer, 0.05N Phosphate Buffer, pH 6.0, 20 to 25° C.) of 15400 µg/mL and a solubility ([4]; aqueous buffer, 0.05N Phosphate Buffer, pH 6.8, 20 to 25° C.) of 6170 µg/mL. The solubility ([4]; aqueous buffer, 0.05N Phosphate Buffer, pH 7.2, 20 to 25° C.) was 1040 µg/mL, the solubility ([4]; aqueous buffer, 0.05N Phosphate Buffer, pH 7.5, 20 to 25° C.) was 580 µg/mL and the solubility ([4]; simulated gastric fluid, 0.1N HCl, pH 1.2, 20 to 25° C.) was 570 µg/mL. The solubility ([4]; Water, pH 5.7, 20 to 25° C.) was 11300 µg/mL, the Angle of repose [5] was 35 ° and the “Carr's index” value [5] was 33.3%. The bulk density [5] was 0.236 gm/ml and the tapped density [5] was 0.355 g/mL.

Reference: US11992558B2, “Controlled release formulation comprising flavoxate” (priority 2018, dated 2024)
